The results in this text go back to ChEMBL document CHEMBL5226340, “Chemical Biology of Sortase A Inhibition: A Gateway to Anti-infective Therapeutic Agents” (J Med Chem, 2021).

≈ marks a conversion by molar mass, not a printed value. Starred links: 1 amine or outer side, 2 acyl side, 3 side chain; linkers in the order of their positions; H or OH if unused. Non-standard residues stand in square brackets, D forms with d. Residues, ends and D or L forms follow the SMILES beside them. X1 = C[C@@H](N[*:1])P(=O)(O)CCC(=O)[*:2] Where only a bound is given, the exact number is not on record here.

Test [1] deals with T1, Sortase A (Staphylococcus aureus, UniProt Q9S446).
T1 sequence (Q9S446 whole entry): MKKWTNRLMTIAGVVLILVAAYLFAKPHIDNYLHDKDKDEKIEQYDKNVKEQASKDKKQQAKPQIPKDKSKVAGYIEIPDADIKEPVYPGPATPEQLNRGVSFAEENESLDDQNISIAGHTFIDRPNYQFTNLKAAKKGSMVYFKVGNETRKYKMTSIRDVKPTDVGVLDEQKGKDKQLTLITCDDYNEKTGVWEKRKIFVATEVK
Description: Inhibition of Staphylococcus aureus SrtA with 24 residues truncated from N-terminus using Abz-LPATG-Dap as substrate.

In test [2] the target is T1, Sortase A. Description: Inhibition of recombinant Staphylococcus aureus SrtA deltaN59 using Dabcyl-[…]-Edans as substrate preincubated for 20 mins followed by substrate addition and measured after 1 hr by fluorescence based analysis.
In test [3] the target is T1, Sortase A. Nature of the test: Inhibition of recombinant Staphylococcus aureus ATCC 6538p SrtA expressed in Escherichia coli TOP10 using Dabcyl-QALPETGEE-Edans as substrate incubated for 1 hr by fluorometric analysis.
Test [4] concerns the target T2, Sortase A (Staphylococcus aureus) (UniProt Q9S446).
T2 sequence (whole entry): T1 sequence (Q9S446 whole entry)
Description: Binding affinity to Staphylococcus aureus SrtA using Abz-DNP as substrate assessed as second order rate constant of inhibition, kinact/ki.

Test [5] deals with T2, Sortase A (Staphylococcus aureus). Description: Binding affinity to Staphylococcus aureus SrtA assessed as first order rate constant of inactivation.
For test [6], the target named is T1, Sortase A. Nature of the test: Binding affinity to Staphylococcus aureus SrtA assessed as inhibition constant.
Test [7] deals with Staphylococcus aureus. Description: Antibacterial activity against Staphylococcus aureus. The test is classed as functional.
Test [8] concerns the target T1, Sortase A. Nature of the test: Inhibition of wild type recombinant Staphylococcus aureus ATCC 25904 Sortase A expressed in Escherichia coli BL21 using Dabcyl-QALPETGEE-Edans as substrate incubated for 30 mins followed by substrate addition and measured after 60 mins by FRET assay.
The target in test [9] is T2, Sortase A (Staphylococcus aureus). Description: Inhibition of Staphylococcus aureus SrtA expressed in Escherichia coli BL21 (DE3) cells using Abz-LPETG-Dap(Dnp) as substrate assessed as kinact/ki.
In test [10] the target is T1, Sortase A. Description: Inhibition of Staphylococcus aureus SrtA using FRET substrate incubated for 1 hr by FRET assay.
Test [11] has as its target T1, Sortase A. Nature of the test: Inhibition of Staphylococcus aureus SrtA expressed in Escherichia coli by fluorescence based analysis.
The target in test [12] is T1, Sortase A. Nature of the test: Inhibition of Staphylococcus aureus SrtA (60 to 206 residues) using Abz-LPETG-Dap(Dnp)-NH2 as substrate incubated for 1 hr by FRET assay.
Test [13] deals with T1, Sortase A. Nature of the test: Inhibition of C-terminal 6His-tagged recombinant Staphylococcus aureus SrtA with 1 to 59 residues truncated from N-terminus expressed in Escherichia coli BL21 (DE3) using dabcyl-QALPETGEE-edans as substrate preincubated for 1 hr followed by substrate addition and measured for 1 hr by FRET assay.
Test [14] deals with Staphylococcus aureus. Nature of the test: Inhibition of biofilm formation in Staphylococcus aureus ATCC 29213 incubated for 24 hrs by crystal violet staining based analysis. The test is classed as functional, organism-based. The settings on record: ATCC 29213, 24 h.
Test [15] concerns Staphylococcus aureus. Description: Inhibition of biofilm formation in Staphylococcus aureus ATCC 29213 at 100 uM incubated for 24 hrs by safranin staining based analysis relative to control. It is filed as functional.
The subject of test [16] is Staphylococcus aureus. Description: Inhibition of biofilm formation in Staphylococcus aureus ATCC 25923 at 100 uM incubated for 24 hrs by safranin staining based analysis relative to control. It is filed as functional.
The test system of test [17] is Staphylococcus aureus. Nature of the test: Inhibition of biofilm formation in Staphylococcus aureus ATCC 6538 at 100 uM incubated for 24 hrs by safranin staining based analysis relative to control. It is filed as functional.
Test [18] has as its system Staphylococcus aureus. Description: Antibacterial activity against Staphylococcus aureus ATCC 6538p assessed as inhibition of bacterial growth incubated overnight by spectrophotometer. The test is classed as functional.
The target of test [19] is T1, Sortase A. Description: Inhibition of recombinant Staphylococcus aureus SrtA using Abz-LPETG-Dap(Dnp) as substrate.
For test [20], the target named is T1, Sortase A. Description: Inhibition of Staphylococcus aureus SrtA transpeptidation activity.
Test [21] addresses T1, Sortase A. Nature of the test: Inhibition of recombinant Staphylococcus aureus SrtA using DabcylQALPETGEE-Edans as substrate by FRET assay.

As for `Clc1ccccc1-c1nn2c(-c3ccncc3)nnc2s1`, in [1], inhibition was half-maximal at 37.7 µM (IC50).

`CC(C)C[C@H](N)C(=O)N1CCC[C@H]1C(=O)N[C@@H](CCCNC(=N)N)C(=O)N[C@@H](CC(=O)O)C(=O)N[C@@H](C)C(=O)O` (H-LPRDA-OH): the IC50 (in general, the concentration that inhibits the measured activity by half) in [2] was found to be 10.6 µM. As for `O=c1c(O)c(-c2ccc(O)c(O)c2)oc2cc(O)cc(O)c12` [QUERCETIN], the IC50 in test [3] came to 52.7 µM.

Take `O=C1C[C@H]2O[C@H](CCc3ccccc3)C3=C(C(=O)C=CC3=O)[C@H]2O1`: in test [4], the Ratio was 1.09 10^4/M/min and the kinact/Ki is 183 M⁻¹ s⁻¹. In addition, the Kinact in test [5] is 3.88 10^-2/min. Further, the Ki (as a rule, a dissociation constant, usually derived from enzyme kinetics or from competition with a known ligand) in test [6] amounted to 3.57 µM. For the compound `COc1ccc(CCc2cc(OC)c(OC)c(OC)c2)cc1O`, in test [7], the MIC (as a rule, the least concentration at which growth counts as inhibited) stood at 1600 µM (≈ 509 µg/mL). The IC50 in [8] was found to be 65.7 µM.

For `C=CS(=O)(=O)c1ccccc1`, the Ratio in [9] amounted to 20.1 M⁻¹ min⁻¹. `O=c1ccc2cc(O)c(O)cc2o1` [ESCULETIN]: in test [10], it took 36.2 µM to reach half-maximal inhibition (IC50). As to `O=S(=O)(O)c1cccc(-c2nn3c(-c4ccncc4)nnc3s2)c1`, the IC50 in test [1] is 9.3 µM. Regarding `Cc1cc2nc3[nH]c(=O)[nH]c(=O)c3nc2cc1C` [LUMICHROME], the IC50 in test [11] was found to be 198 µM. Take `O=C(O)COc1ccccc1C1Nc2cccc3cccc(c23)N1`: in [12], half-maximal inhibition (IC50) was put at 47.2 µM. In the case of `Cc1cc(C(=O)/C(=N/Nc2c(F)cccc2F)C(=O)O)no1`, the MIC in [7] was over 200 µM. Also, the IC50 is 76.5 µM in test [13] and 29 µM in test [14]. `CC(=O)/C(=N/Nc1ccccc1)C(=O)O` had an MIC in test [7] of over 270 µM. Moreover, the IC50 in test [13] is 80 µM. The inhibition at 100 µM in test [15], in test [16] and in [17] was 60% throughout. Consider `COc1cc2c(cc1O)OC(c1ccccc1)CC2=O` (centres undefined), for which the IC50 in test [3] amounted to 96.1 µM. For the same compound, in test [18], the MIC is over 4700 µM. As for `CC(C)C[C@H](NC(=O)[C@H](C)NC(=O)[C@@H](N)Cc1ccc(O)cc1)C(=O)N1CCC[C@H]1C(=O)N[C@@H](CCC(=O)O)C(=O)N[C@H](C)P(=O)(O)CCC(=O)N[C@@H](CCC(=O)O)C(=O)N[C@@H](CCC(=O)O)C(N)=O` (H-YALPE[X1]EE-NH2), the IC50 in [19] turned out to be 10000 µM. In the case of `O=C(/C=C/c1ccc(O)cc1)O[C@H]1[C@@H](O)[C@H](O)C[C@](O)(C(=O)O)[C@H]1O`, in test [20], the IC50 was determined as 161 µM.

On to `c1cc(-c2nnc3sc(-c4ccc5[nH]cnc5c4)nn23)ccn1`, for which half-maximal inhibition in [1] (IC50) required 17 µM. `COc1ccc2c(c1OC)C(=O)O[C@@H]2[C@H]1c2cc3c(cc2CCN1C)OCO3` [HYDRASTINE]: the half-maximal inhibitory concentration (IC50) in [21] was over 209 µM. `Clc1ccc(C2Nc3cccc4cccc(c34)N2)cc1` had an IC50 in test [12] of 89 µM.
